Laboratory results reported in patent publication US9370506B2, “Modulators of aldehyde dehydrogenase and methods of use thereof” (The Board of Trustees of the Leland Stanford Junior …, priority 2008, dated 2016).

Key:
ALDH3 = target: T1, ALDH3 (Homo sapiens, UniProt P30838); assay: ALDH3 enzymatic activity, spectrophotometric NAD+ to NADH assay; type: biochemical; conditions: acetaldehyde as substrate; FIG. 15
T1 construct: made in house; host or cells: BL21 E. coli
T1 sequence (P30838 1-453): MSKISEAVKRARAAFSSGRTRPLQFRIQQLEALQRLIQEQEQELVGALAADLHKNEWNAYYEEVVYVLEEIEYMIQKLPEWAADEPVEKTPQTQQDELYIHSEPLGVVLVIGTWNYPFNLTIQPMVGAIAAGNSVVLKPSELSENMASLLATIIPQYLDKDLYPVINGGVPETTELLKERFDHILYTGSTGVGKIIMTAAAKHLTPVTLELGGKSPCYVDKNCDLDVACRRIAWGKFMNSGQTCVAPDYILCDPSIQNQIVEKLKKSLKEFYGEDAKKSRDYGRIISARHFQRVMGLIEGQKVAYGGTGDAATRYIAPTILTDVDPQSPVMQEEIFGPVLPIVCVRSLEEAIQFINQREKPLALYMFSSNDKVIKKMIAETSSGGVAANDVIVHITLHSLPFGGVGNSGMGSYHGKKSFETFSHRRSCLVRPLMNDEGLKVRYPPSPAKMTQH
Experimental: (§1) Reagents for plant-derived compounds safrole, isosafrole, piperine, sesamin, capsaicin were purchased from Sigma-Aldrich Chemicals and dihydromethysticin was purchased from AvaChem. Scientific. Piperine related compounds, Alda-101 to Alda-112, were synthesized by standard organic chemistry. All testing compounds were dissolved in dimethyl-sulfoxide (DMSO) to obtain a stock solution of 20 mM. Different recombinant ALDH isozymes with a His-epitope tag at the N-terminus were constructed, cloned and expressed in BL21 E. coli host cells according published methods (Chen et al., 2008 Science 321:1493). The bacteria were subjected to 0.5 mM IPTG induction for protein expression at 30° C. Purification of the recombinant proteins by affinity nickel columns were carried out using a standard protocol according to manufacturer's instructions (Novagen, Wis., USA).
(§2) ALDH enzymatic activity was determined spectrophotometrically using purified recombinant protein (15 ug) in the reductive reaction of NAD^+ to NADH at λ340 nm (Rex et al., 1985, Alcohol Clin Exp Res 9: 147). All the assays in the presence of absence of a testing compound were carried out at 25° C. in […] pyrophosphate buffer, pH=9.5, 2.4 mM NAD+ and 10 mM acetaldehyde or phenylacetaldehyde as a substrate.

ALDH2 isozyme = target: T2, ALDH2 isozyme (Homo sapiens, UniProt P05091); assay: ALDH2 enzymatic activity, spectrophotometric NAD+ to NADH assay; type: biochemical; conditions: 40 uM
T2 construct: made in house; host or cells: BL21 E. coli
T2 sequence (P05091 18-517): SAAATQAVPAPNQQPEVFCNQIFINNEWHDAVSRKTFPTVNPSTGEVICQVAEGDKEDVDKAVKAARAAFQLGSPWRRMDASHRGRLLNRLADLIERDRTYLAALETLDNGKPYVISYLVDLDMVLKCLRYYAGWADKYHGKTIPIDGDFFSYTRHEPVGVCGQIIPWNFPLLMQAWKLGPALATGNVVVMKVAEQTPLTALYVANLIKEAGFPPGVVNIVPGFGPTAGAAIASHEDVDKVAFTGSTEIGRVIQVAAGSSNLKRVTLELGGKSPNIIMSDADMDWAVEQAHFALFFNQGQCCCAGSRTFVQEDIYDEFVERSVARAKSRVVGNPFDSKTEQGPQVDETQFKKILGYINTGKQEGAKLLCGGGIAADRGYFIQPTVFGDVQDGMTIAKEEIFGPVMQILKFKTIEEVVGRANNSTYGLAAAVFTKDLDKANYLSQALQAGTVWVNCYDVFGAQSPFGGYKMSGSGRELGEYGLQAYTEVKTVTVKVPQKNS
Experimental: as §1, §2

C57Bl/6J mice = assay: Radiation dermatitis model, gamma irradiation of skin; type: in vivo
Description: Radiation dermatitis is a painful side effect experienced by human patients undergoing radiotherapy for solid tumors. Radiation dermatitis is believed to be due to acute oxidative injury to the skin, which leads to lipid peroxidation and the accumulation of reactive aldehydes, such as 4-hydrorxynonenal. In this example, Alda-1 is shown to reduce radiation dermatitis by maintaining ALDH activity during exposure to radiation. C57Bl/6J mice were exposed to 6Gy gamma irradiation per day (applied directly to the shaved back area over a period of 5 minutes) in the absence or presence of 200 μl of 3 mM Alda-1 (in 95% ethanol) or […] alone (vehicle control). Alda-1 or ethanol alone was applied topically 5 minutes before and 5 minutes after each radiation treatment for a total of 10 sessions (60 Gy total, 6 Gy/day with a two-day break after 5 sessions). Mice were euthanized and exposed skin was dissected, and either homogenized in Lysis Buffer (for ALDH2 activity assay, FIG. 18) or fixed in 4%-paraformaldehyde (for histological analysis, FIG. 19).

[1] = test system: SCC VII murine squamous cell carcinoma cells; assay: Tumor radiation therapy model; type: in vivo, mice; conditions: topical 200 μl of 3 mM, FIG. 21
Experimental: In order to determine the impact of Alda-1 on the effectiveness of radiation therapy, C57Bl/6J mice were inoculated subcutaneously with SCC VII murine squamous cell carcinoma cells (5×10^5) and exposed to radiation therapy (250cGy/day) in the absence or presence of Alda-1 (200 μl of 3 mM Alda-1 in 95% ethanol) or ethanol (200 μl of 95% ethanol) applied 5 min before and 5 min after radiation. Tumor volume was measured daily until the tumor reached four times its starting size at treatment onset (Ning et al., 2008, Mol Cancer Therapy 7:1569-78).

- effect on enzymatic activity of ALDH3 isozyme (ALDH3): does not have any effect
- effect of co-incubation on safrole inhibition of ALDH2 (ALDH2 isozyme; safrole 500 uM & 1000 uM, FIG. 17): prevented and reversed
- effect of co-incubation on safrole inhibition of ALDH2, 15-minute kinetic measurements (ALDH2 isozyme; safrole 1000 uM, FIG. 18): prevented and reversed
SMILES: O=C(NCc1ccc2c(c1)OCO2)c1c(Cl)cccc1Cl [Alda-1, N-(1,3-benzodioxol-5-ylmethyl)-2,6-dichlorobenzamide]
- ALDH activity in irradiated skin (C57Bl/6J mice; topical 3 mM in 95% ethanol, 6Gy gamma irradiation, FIG. 19): significantly attenuated the inhibition of ALDH
- Epidermal thickening after radiation (C57Bl/6J mice; topical 3 mM, 5 days exposure to 6Gy irradiation, vs vehicle control, FIG. 20): significantly reduced
- sensitivity of the tumor to radiation treatment (tumor growth) ([1]; 250cGy/day, vs ethanol vehicle control): increased significantly the sensitivity of the tumor to radiation treatment
- tumor growth in non-irradiated mice ([1]; no radiation, vs ethanol treated mice): no effect on tumor growth
